Laboratory results from ChEMBL document CHEMBL5550120, “SuFEx-based chemical diversification for the systematic discovery of CRBN molecular glues” (Bioorg Med Chem, 2024).
Active and inactive are the calls of the source. The calls are words filed in the database; no cut-off is given here.

Key:
[1] = tested on: MV4-11; assay: Antiproliferative activity against wild type human MV4-11 cells assessed as reduction in cell viability measured after 3 days by ATP-dependent luminescence assay; format: functional, cell-based; conditions: MV4-11, 72 h
[2] = molecular target: T1, Protein cereblon/Eukaryotic peptide chain release factor GTP-binding subunit ERF3A (Homo sapiens, UniProt Q96SW2+P15170); assay: Molecular glue activity at CRBN/HiBiT-tagged GSPT1 in wild type human MV4-11 cells assessed as induction of GSPT1 degradation measured after 3 hrs by immunoblot analysis; format: cell-based
Target sequence in this assay (Q96SW2 whole entry): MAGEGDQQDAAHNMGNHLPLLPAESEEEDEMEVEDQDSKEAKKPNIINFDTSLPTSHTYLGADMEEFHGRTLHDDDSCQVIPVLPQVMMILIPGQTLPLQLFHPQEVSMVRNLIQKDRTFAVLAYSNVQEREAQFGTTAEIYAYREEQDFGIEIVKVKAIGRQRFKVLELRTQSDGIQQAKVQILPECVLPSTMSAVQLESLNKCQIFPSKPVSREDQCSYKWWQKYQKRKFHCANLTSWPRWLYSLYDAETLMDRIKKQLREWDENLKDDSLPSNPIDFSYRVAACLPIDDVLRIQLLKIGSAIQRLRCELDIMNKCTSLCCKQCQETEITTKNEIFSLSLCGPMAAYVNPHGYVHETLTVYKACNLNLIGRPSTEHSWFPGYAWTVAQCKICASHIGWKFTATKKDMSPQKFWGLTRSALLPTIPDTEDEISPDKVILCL
Target sequence in this assay (P15170 whole entry): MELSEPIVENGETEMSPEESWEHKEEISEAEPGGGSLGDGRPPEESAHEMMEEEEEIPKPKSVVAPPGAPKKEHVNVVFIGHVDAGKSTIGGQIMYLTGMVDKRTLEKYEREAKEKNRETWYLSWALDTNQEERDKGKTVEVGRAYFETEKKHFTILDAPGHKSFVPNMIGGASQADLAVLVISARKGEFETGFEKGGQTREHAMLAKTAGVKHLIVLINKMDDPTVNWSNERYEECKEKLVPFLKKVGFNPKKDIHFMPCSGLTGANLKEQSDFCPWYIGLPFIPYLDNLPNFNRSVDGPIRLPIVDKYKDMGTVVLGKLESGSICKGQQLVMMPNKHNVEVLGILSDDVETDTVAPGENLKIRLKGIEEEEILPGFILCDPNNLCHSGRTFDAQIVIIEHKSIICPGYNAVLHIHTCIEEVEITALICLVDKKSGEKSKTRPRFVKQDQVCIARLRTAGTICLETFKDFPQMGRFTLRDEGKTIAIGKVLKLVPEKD

[3] = molecular target: T1, Protein cereblon/Eukaryotic peptide chain release factor GTP-binding subunit ERF3A; assay: Molecular glue activity at CRBN/HiBiT-tagged GSPT1 in wild type human BE2C cells assessed as induction of GSPT1 degradation measured after 3 hrs by immunoblot analysis; format: cell-based
Target sequence in this assay (Q96SW2 whole entry): as the sequence (Q96SW2 whole entry) above
Target sequence in this assay (P15170 whole entry): as the sequence (P15170 whole entry) above

[4] = tested on: BE(2)-C; assay: Antiproliferative activity against wild type human BE2C cells assessed as reduction in cell viability measured after 3 days by ATP-dependent luminescence assay; format: functional, cell-based; conditions: 72 h
[5] = molecular target: T1, Protein cereblon/Eukaryotic peptide chain release factor GTP-binding subunit ERF3A; assay: Molecular glue activity at CRBN/HiBiT-tagged GSPT1 in human MOLT-4 cells assessed as induction of GSPT1 degradation measured after 3 hrs by immunoblot analysis; format: cell-based
Target sequence in this assay (Q96SW2 whole entry): as the sequence (Q96SW2 whole entry) above
Target sequence in this assay (P15170 whole entry): as the sequence (P15170 whole entry) above

[6] = tested on: MOLT-4; assay: Antiproliferative activity against wild type human MOLT-4 cells assessed as reduction in cell viability measured after 3 days by ATP-dependent luminescence assay; format: functional, cell-based; conditions: MOLT-4, 72 h
[7] = molecular target: T1, Protein cereblon/Eukaryotic peptide chain release factor GTP-binding subunit ERF3A; assay: Molecular glue activity at CRBN/HiBiT-tagged GSPT1 in human MV4-11 cells assessed as induction of GSPT1 degradation at 3 uM pretreated with carfilzomib at 500 nM for 1 hr followed by compound treatment and measured after 3 hrs by immunoblot analysis; format: cell-based
Target sequence in this assay (P15170 whole entry, looked up): as the sequence (P15170 whole entry) above
Target sequence in this assay (Q96SW2 whole entry, looked up): as the sequence (Q96SW2 whole entry) above

[8] = tested on: MV4-11; assay: Downregulation of GSPT1 protein abundance in human MV4-11 cells at 3 uM measured after 3 hrs by proteomics analysis; format: functional, cell-based
[9] = molecular target: DNA-binding protein Ikaros (Homo sapiens) (UniProt Q13422); assay: Induction of IKZF1 degradation in human MV4-11 cells at 3 uM measured after 3 hrs by immunoblot analysis; format: cell-based
[10] = molecular target: T1, Protein cereblon/Eukaryotic peptide chain release factor GTP-binding subunit ERF3A; assay: Molecular glue activity at CRBN/HiBiT-tagged GSPT1 in human MV4-11 cells assessed as induction of GSPT1 degradation at 3 uM pretreated with MLN4924 at 1 uM for 1 hr followed by compound treatment and measured after 3 hrs by immunoblot analysis; format: cell-based
Target sequence in this assay (P15170 whole entry, looked up): as the sequence (P15170 whole entry) above
Target sequence in this assay (Q96SW2 whole entry, looked up): as the sequence (Q96SW2 whole entry) above

[11] = molecular target: T1, Protein cereblon/Eukaryotic peptide chain release factor GTP-binding subunit ERF3A; assay: Molecular glue activity at CRBN/HiBiT-tagged GSPT1 in human MOLT-4 cells assessed as induction of GSPT1 degradation at 3 uM pretreated with pomalidomide at 25 uM for 1 hr followed by compound treatment and measured after 3 hrs by immunoblot analysis; format: cell-based
Target sequence in this assay (P15170 whole entry, looked up): as the sequence (P15170 whole entry) above
Target sequence in this assay (Q96SW2 whole entry, looked up): as the sequence (Q96SW2 whole entry) above

[12] = tested on: MV4-11; assay: Antiproliferative activity against CRBN depleted human MV4-11 cells assessed as reduction in cell viability measured after 3 days by ATP-dependent luminescence assay; format: functional, cell-based; conditions: time 3.0 day
[13] = tested on: MV4-11; assay: Downregulation of GSPT2 protein abundance in human MV4-11 cells at 3 uM measured after 3 hrs by proteomics analysis; format: functional, cell-based
[14] = Selectivity index, ratio of EC50 for antiproliferative activity against human BE2C cells to EC50 for antiproliferative activity against human MOLT-4 cells; format: functional
[15] = molecular target: DNA-binding protein Ikaros (Homo sapiens) (UniProt Q13422); assay: Induction of IKZF1 degradation in human MV4-11 cells at 3 uM measured after 3 hrs by proteomics analysis; format: cell-based
[16] = molecular target: T1, Protein cereblon/Eukaryotic peptide chain release factor GTP-binding subunit ERF3A; assay: Molecular glue activity at CRBN/HiBiT-tagged GSPT1 in human BE2C cells assessed as induction of GSPT1 degradation at 3 uM pretreated with MLN4924 at 1 uM for 1 hr followed by compound treatment and measured after 3 hrs by immunoblot analysis; format: cell-based
Target sequence in this assay (P15170 whole entry, looked up): as the sequence (P15170 whole entry) above
Target sequence in this assay (Q96SW2 whole entry, looked up): as the sequence (Q96SW2 whole entry) above

[17] = molecular target: T1, Protein cereblon/Eukaryotic peptide chain release factor GTP-binding subunit ERF3A; assay: Molecular glue activity at CRBN/GSPT1 in CRBN depleted human BE2C cells assessed as induction of GSPT1 degradation at 3 uM measured after 3 hrs by immunoblot analysis; format: cell-based
Target sequence in this assay (P15170 whole entry, looked up): as the sequence (P15170 whole entry) above
Target sequence in this assay (Q96SW2 whole entry, looked up): as the sequence (Q96SW2 whole entry) above

[18] = molecular target: T1, Protein cereblon/Eukaryotic peptide chain release factor GTP-binding subunit ERF3A; assay: Molecular glue activity at CRBN/GSPT1 in CRBN depleted human MV4-11 cells assessed as induction of GSPT1 degradation at 3 uM measured after 3 hrs by immunoblot analysis; format: cell-based
Target sequence in this assay (P15170 whole entry, looked up): as the sequence (P15170 whole entry) above
Target sequence in this assay (Q96SW2 whole entry, looked up): as the sequence (Q96SW2 whole entry) above

[19] = molecular target: DNA-binding protein Ikaros (Homo sapiens) (UniProt Q13422); assay: Induction of cHiBiT-tagged IKZF1 degradation in human MV4-11 cells; format: cell-based
[20] = Selectivity index, ratio of EC50 for antiproliferative activity against human BE2C cells to EC50 for antiproliferative activity against human MV4-11 cells; format: functional
[21] = molecular target: T1, Protein cereblon/Eukaryotic peptide chain release factor GTP-binding subunit ERF3A; assay: Molecular glue activity at CRBN/GSPT1 in human BE2C cells harboring GSPT1 G575N mutant assessed as induction of GSPT1 degradation at 3 uM measured after 3 hrs by immunoblot analysis; format: cell-based
[22] = tested on: BE(2)-C; assay: Antiproliferative activity against human BE2C cells harboring GSPT1 G575N mutant assessed as reduction in cell viability measured after 3 days by ATP-dependent luminescence assay; format: functional, cell-based; conditions: time 3.0 day
[23] = molecular target: T1, Protein cereblon/Eukaryotic peptide chain release factor GTP-binding subunit ERF3A; assay: Molecular glue activity at CRBN/HiBiT-tagged GSPT1 in human BE2C cells assessed as induction of GSPT1 degradation at 3 uM pretreated with pomalidomide at 25 uM for 1 hr followed by compound treatment and measured after 3 hrs by immunoblot analysis; format: cell-based
[24] = molecular target: T1, Protein cereblon/Eukaryotic peptide chain release factor GTP-binding subunit ERF3A; assay: Molecular glue activity at CRBN/HiBiT-tagged GSPT1 in human MV4-11 cells assessed as induction of GSPT1 degradation at 3 uM pretreated with pomalidomide at 25 uM for 1 hr followed by compound treatment and measured after 3 hrs by immunoblot analysis; format: cell-based
[25] = tested on: MV4-11; assay: Antiproliferative activity against human MV4-11 cells harboring GSPT1 G575N mutant assessed as reduction in cell viability measured after 3 days by ATP-dependent luminescence assay; format: functional, cell-based; conditions: time 3.0 day
[26] = molecular target: T1, Protein cereblon/Eukaryotic peptide chain release factor GTP-binding subunit ERF3A; assay: Molecular glue activity at CRBN/GSPT1 in human MOLT-4 cells harboring GSPT1 G575N mutant assessed as induction of GSPT1 degradation at 3 uM measured after 3 hrs by immunoblot analysis; format: cell-based
[27] = molecular target: T1, Protein cereblon/Eukaryotic peptide chain release factor GTP-binding subunit ERF3A; assay: Molecular glue activity at CRBN/HiBiT-tagged GSPT1 in human BE2C cells assessed as induction of GSPT1 degradation at 3 uM pretreated with carfilzomib at 500 nM for 1 hr followed by compound treatment and measured after 3 hrs by immunoblot analysis; format: cell-based
[28] = molecular target: T1, Protein cereblon/Eukaryotic peptide chain release factor GTP-binding subunit ERF3A; assay: Molecular glue activity at CRBN/HiBiT-tagged GSPT1 in human MOLT-4 cells assessed as induction of GSPT1 degradation at 3 uM pretreated with MLN4924 at 1 uM for 1 hr followed by compound treatment and measured after 3 hrs by immunoblot analysis; format: cell-based
[29] = tested on: MOLT-4; assay: Antiproliferative activity against human MOLT-4 cells harboring GSPT1 G575N mutant assessed as reduction in cell viability measured after 3 days by ATP-dependent luminescence assay; format: functional, cell-based; conditions: time 3.0 day
[30] = tested on: MOLT-4; assay: Antiproliferative activity against CRBN depleted human MOLT-4 cells assessed as reduction in cell viability measured after 3 days by ATP-dependent luminescence assay; format: functional, cell-based; conditions: time 3.0 day
[31] = molecular target: T1, Protein cereblon/Eukaryotic peptide chain release factor GTP-binding subunit ERF3A; assay: Molecular glue activity at CRBN/GSPT1 in human MV4-11 cells harboring GSPT1 G575N mutant assessed as induction of GSPT1 degradation at 3 uM measured after 3 hrs by immunoblot analysis; format: cell-based
[32] = tested on: BE(2)-C; assay: Antiproliferative activity against CRBN depleted human BE2C cells assessed as reduction in cell viability measured after 3 days by ATP-dependent luminescence assay; format: functional, cell-based; conditions: time 3.0 day
[33] = molecular target: T1, Protein cereblon/Eukaryotic peptide chain release factor GTP-binding subunit ERF3A; assay: Molecular glue activity at CRBN/HiBiT-tagged GSPT1 in human MOLT-4 cells assessed as induction of GSPT1 degradation at 3 uM pretreated with carfilzomib at 500 nM for 1 hr followed by compound treatment and measured after 3 hrs by immunoblot analysis; format: cell-based
[34] = molecular target: T1, Protein cereblon/Eukaryotic peptide chain release factor GTP-binding subunit ERF3A; assay: Molecular glue activity at CRBN/GSPT1 in CRBN depleted human MOLT-4 cells assessed as induction of GSPT1 degradation at 3 uM measured after 3 hrs by immunoblot analysis; format: cell-based

DNA-binding protein Ikaros (Homo sapiens), sequence (Q13422 whole entry): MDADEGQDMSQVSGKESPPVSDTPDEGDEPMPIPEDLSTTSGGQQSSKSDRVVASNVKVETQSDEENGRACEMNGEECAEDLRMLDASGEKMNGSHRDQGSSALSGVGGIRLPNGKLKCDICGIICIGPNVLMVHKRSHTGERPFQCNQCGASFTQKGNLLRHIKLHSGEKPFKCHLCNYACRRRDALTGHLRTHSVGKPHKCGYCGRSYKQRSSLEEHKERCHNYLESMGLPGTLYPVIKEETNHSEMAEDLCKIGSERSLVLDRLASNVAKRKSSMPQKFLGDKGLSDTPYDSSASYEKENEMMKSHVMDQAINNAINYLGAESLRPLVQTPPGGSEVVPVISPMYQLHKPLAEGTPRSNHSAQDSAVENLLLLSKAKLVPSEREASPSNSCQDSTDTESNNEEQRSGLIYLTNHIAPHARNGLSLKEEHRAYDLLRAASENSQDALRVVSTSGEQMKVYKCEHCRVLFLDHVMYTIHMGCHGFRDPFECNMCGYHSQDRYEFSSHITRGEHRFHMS

Row | EC50 [1] | DC50 [2] | DC50 [3] | DC50 [5] | EC50 [6] | Activity [7] | Activity [10] | Activity [11] | Activity [16] | Activity [17] | Activity [18] | Activity [21] | Activity [23] | SMILES | EC50 [4] | Activity [8] | Activity [12] | Activity [13] | Ratio EC50 [14] | Ratio EC50 [20] | Activity [22] | further results
1 | < 1 nM | < 1 nM | < 1 nM | < 1 nM | < 1 nM | – | – | – | – | – | – | – | – | Cc1ccc(NC(=O)NCc2ccc3c(c2)CN(C2CCC(=O)NC2=O)C3=O)cc1Cl (stereo unspecified) | < 5 nM | – | – | – | – | – | – | –
2 | 190 nM | 280 nM | 8000 nM | 280 nM | 180 nM | inactive | inactive | inactive | inactive | inactive | inactive | inactive | inactive | Cc1cccc(Cl)c1OCCNS(=O)(=O)Nc1ccc2c(c1)CN(C1CCC(=O)NC1=O)C2=O (stereo unspecified) | 12000 nM | Active | inactive | Active | ~100 | ~100 | inactive | Activity [9]: Active; Activity [15]: inactive; Activity [19]: Active; Activity [24]: inactive; Activity [25]: inactive; Activity [26]: inactive; Activity [27]: inactive; Activity [28]: inactive; Activity [29]: inactive; Activity [30]: inactive; Activity [31]: inactive; Activity [32]: inactive; Activity [33]: inactive; Activity [34]: inactive
3 | 40 nM | 120 nM | 14000 nM | 90 nM | 60 nM | inactive | inactive | inactive | inactive | inactive | inactive | inactive | inactive | CC(C)CCOc1ccccc1OCCNS(=O)(=O)Nc1ccc2c(c1)CN(C1CCC(=O)NC1=O)C2=O (stereo unspecified) | 13000 nM | Active | inactive | Active | ~100 | ~100 | inactive | Activity [24]: inactive; Activity [25]: inactive; Activity [26]: inactive; Activity [27]: inactive; Activity [28]: inactive; Activity [29]: inactive; Activity [30]: inactive; Activity [31]: inactive; Activity [32]: inactive; Activity [33]: inactive; Activity [34]: inactive
4 | 80 nM | 60 nM | 7000 nM | 90 nM | 110 nM | inactive | inactive | inactive | inactive | inactive | inactive | inactive | inactive | CCCOc1ccccc1CNS(=O)(=O)Nc1ccc2c(c1)CN(C1CCC(=O)NC1=O)C2=O (stereo unspecified) | 18000 nM | Active | inactive | Active | ~100 | ~100 | inactive | Activity [9]: inactive; Activity [15]: inactive; Activity [19]: inactive; Activity [24]: inactive; Activity [25]: inactive; Activity [26]: inactive; Activity [27]: inactive; Activity [28]: inactive; Activity [29]: inactive; Activity [30]: inactive; Activity [31]: inactive; Activity [32]: inactive; Activity [33]: inactive; Activity [34]: inactive
5 | 410 nM | 700 nM | 19000 nM | 700 nM | 420 nM | inactive | inactive | inactive | inactive | inactive | inactive | inactive | inactive | CCC(C)(CCNS(=O)(=O)Nc1ccc2c(c1)CN(C1CCC(=O)NC1=O)C2=O)c1ccccc1OC (stereo unspecified) | 42000 nM | Active | inactive | Active | ~100 | ~100 | inactive | Activity [24]: inactive; Activity [25]: inactive; Activity [26]: inactive; Activity [27]: inactive; Activity [28]: inactive; Activity [29]: inactive; Activity [30]: inactive; Activity [31]: inactive; Activity [32]: inactive; Activity [33]: inactive; Activity [34]: inactive
